Experimental data from patent US5298513A, “Substituted basic 2-aminotetralin in pharmaceuticals” (Bayer Aktiengesellschaft, priority 1986, dated 1994).
Where a name gives a salt, the structure may show the parent alone.

Columns and labels:
[1] = tested on: contraction, caused by serotonin, of the arteria basilaris; assay: Serotonin-agonistic/antagonistic action on the contraction, caused by serotonin, of the arteria basilaris of the dog; type: cell-based; settings: for Effect antagonistic: suppression of serotonin-induced contraction after pre-treatment; for Effect agonistic: serotonin-mimetic contraction
Description: B.) Investigation of the serotonin-agonistic/antagonistic action
To this purpose, the action on the contraction, caused by serotonin, of the arteria basilaris of the dog is investigated [cf. Peroutka et al., Brain Research 259, 327 (1983)].
In this test model, an agonistic action can be detected by the serotonin-mimetic action (contraction).

5-HT1 receptor = assay: Affinity to the 5-HT1 receptor (receptor binding, calf hippocampus membrane preparations, 3H-serotonin); settings: calf hippocampus membranes, 3H-serotonin radioligand
Procedure: A.) Affinity to the 5-HT1 Receptor […] The values specified are data which were determined from receptor binding studies using calf hippocampus membrane preparations. 3H-serotonin was used for this purpose as radioactively labelled ligand.

SMILES | Ki (5-HT1 receptor) [nM] | Effect antagonistic [1] | Effect agonistic [1]
CCCN(CCNC(=O)OCC)C1CCc2cccc(OC)c2C1 (stereo not drawn) [Example 22, 2-[N-(2-Ethoxycarbonylamido-ethyl)-N-propyl]amino-8-methoxy-1,2,3,4-tetrahydronaphthalene hydrochloride] | 3 | 0 | –
CCCN(CCC)C1CCc2cccc(O)c2C1 (stereo not drawn) [R^1 = H, R^2 = nC3 H7, R^3 = nC3 H7, reference compound] | – | 0 | –
CCCN(CCCNC(=O)c1cccnc1)C1CCc2cccc(OC)c2C1 (stereo not drawn) [Example 62, dihydrochloride] | 4 | – | –
CCCN(CCN1CCCCS1(=O)=O)C1CCc2cccc(OC)c2C1 (stereo not drawn) [Example 58, 2-[2-N-Propyl-N-(8-methoxy-1,2,3,4-tetrahydro-2-naphthyl)-amino]ethyl-perhydro-1,2-thiazine 1,1-dioxide hydrochloride] | 4 | – | –
CCCN(CC#N)C1CCc2cccc(OC)c2C1 (stereo not drawn) [Example 26, 2-(N-Cyanomethyl-N-propyl)amino-8-methoxy-1,2,3,4-tetrahydronaphthalene hydrochloride] | 2 | – | –

Continued by falling Ki (5-HT1 receptor), values first:

Ki (5-HT1 receptor) [nM] | SMILES | Effect antagonistic [1] | Effect agonistic [1]
11 | CCCN(CCN(CC)CC)C1CCc2cccc(OC)c2C1 (stereo not drawn) [Example 20, 2-[N-(2-Diethylaminoethyl)-N-propyl]amino-8-methoxy-1,2,3,4-tetrahydronaphthalene dihydrochloride] | – | –
4 | CCCN(CCO)C1CCc2cccc(OC)c2C1 (stereo not drawn) [Example 42, 2-[N-(2-Hydroxyethyl)-N-propyl]amino-8-methoxy-1,2,3,4-tetrahydronaphthalene] | – | –
1 | CCCN(CCCCN1C(=O)c2ccccc2S1(=O)=O)C1CCc2cccc(OC)c2C1.Cl (stereo not drawn) [Example 34, 2-{4-[N-(8-Methoxy-1,2,3,4-tetrahydro-2-naphthyl)-N-propyl-amino]butyl}-1,2-benzisothiazol-3(2H)-one 1,1-dioxide hydrochloride] | – | 0
1 | CCCN(CCNS(=O)(=O)c1ccc(C)cc1)C1CCc2cccc(OC)c2C1 (stereo not drawn) [Example 45, 8-Methoxy-2-{N-[2-(4-toluene-sulphonamido)ethyl]-N-propyl}amino-1,2,3,4-tetrahydronaphthalene hydrochloride] | – | 0
